≈ marks a conversion by molar mass, not a printed value. Entries after “also recorded” stand apart in the source; their conditions may differ. Read-outs that look alike come from different tables or passages of the source.
What was measured:
[1] = tested on: zymosan activated PMNs (human whole blood cells); experiment: Oxidative burst inhibition assay (luminol-enhanced chemiluminescence, zymosan-activated); assay type: cell-based; conditions: for IC50: Whole blood cell, zymosan activated PMNs / human whole blood, tested at 1, 10, 100 μg/mL, mean ± SD of triplicates
Description: Oxidative burst assay was carried out by chemiluminescence technique using luminol as a probe to determine the effect of test compounds on the production of reactive oxygen species (ROS) from phagocytes, employing […] et al. method with slight modifications. […] Louis, MO, USA) and 25 μL ([…]) of luminol (Sigma Chemical Co., St. Louis, MO, USA). HBSS^++ alone was run as a negative control. The level of ROS was measured as RLU (relative light units) with a luminometer (Labsystem Luminoskan RS, Finland). The luminometer was used in repeated scan mode with 50 seconds interval, and one second point measuring time.

[2] = tested on: TNF-α produced by LPS activated THP-1 cells; experiment: Cytokine inhibition assay (TNF-α ELISA); assay type: cell-based, human; conditions: for inhibition at 25 µg/mL: Homo sapiens, read-out: TNF-α % inhibition
Excerpt: THP-1 (Human monocytic leukemia cells) was purchased from ECACC (85011428, European Collection of Cell Cultures, UK). The cells were maintained in endotoxin free RPMI-1640 containing 5.5 mmol/L glucose (BioM Laboratories, Chemical Division, Malaysia), 50 μmol/L mercaptoethanol Merck (Damstadt, Germany), 10% FBS (fetal bovine serum), 2 mmol/L L-glutamine (PAA Laboratories, GmbH, Pasching, Austria), 1 mmol/L sodium pyruvate (GIBCO, Grand Island, N.Y., U.S.A.), and 10 mmol/L HEPES (MP Biomedicals, lllkirch, France). Upon reaching 70% confluency, 2.5×10^5 cells/mL cells were plated in 24 well tissue culture plates. The cells were differentiated using 20 ng/mL phorbol myristate acetate (PMA) (SERVA, Heidelberg, Germany) for 24 hours. The cells were stimulated by adding 50 ng/mL of Escherichia coli lipopolysaccharide B (DIFCO Laboratories, U.S.A.) and treated with compound (25 μg/mL). The incubation was continued for 4 hours at 37°C in 5% CO2. The supernatants collected were analyzed for the level of pro-inflammatory cytokine TNF-α, and quantification was performed by human TNF-α kit (R&D Systems, Minneapolis, U.S.A.), according to manufacturer’s instructions.

PHA activated T-cells = experiment: T-cell proliferation inhibition assay (PBMC, tritiated thymidine); assay type: cell-based, human; conditions: for Inhibition of T-cell proliferation (in words): PHA activated T-cells; for IC50: T-cell
Description: The T-Cell proliferation inhibitory activity of compounds was evaluated by following the reported method of Nielsen et al. (1998) with slight modifications. Peripheral blood mononuclear cells (PBMC) were isolated from healthy human donors with their consent by Ficoll-Hypaque density gradient centrifugation. The study was carried out after approval from independent ethics committee, ICCBS-UoK, No: ICCBS/IEC-008-BC-2015/Protocol/1.0.
The cells were adjusted to a final concentration of 2 × 10^6 cells/mL in 5% FBS (fetal bovine serum) containing RPMI 1640 media and added with 5 μg/mL phytohemagglutinin (PHA) in 96-well round bottom plates. Each compound was added in triplicate using four concentrations (0.2, 1, 5, and 25 μg/mL). Positive control wells contained cells and PHA, whereas cells alone served as a negative control. The plate was incubated in 5% CO2 at 37°C for 72 h, and cells were pulsed with 25 μL of tritiated thymidine (0.5 μci/well). The incubation was continued for further 18 h. The cells were finally harvested on a glass fiber filter, and the plate was read as count per minute (CPM) using β-scintillation counter.

[3] = human PBMC, 5 μg/mL PHA, tested at 0.2, 1, 5, 25 μg/mL, mean ± SD of triplicates, read-out: IC50, PHA activated T-cells proliferation
[4] = Homo sapiens, read-out: IC50, PHA activated T-cells proliferation, human PBMC, 5 μg/mL PHA, tested at 0.2, 1, 5, 25 μg/mL, mean ± SD of triplicates

Compound	IC50 [1] [µg/mL]	inhibition at 25 µg/mL ([2]; compound 25 μg/mL, LPS activated THP-1 cells, 4 h, mean ± SD of triplicates, -ve sign = increase in cytokine level) [%]	Inhibition of TNF-α production (in words) ([2]; LPS activated THP-1 cells)	Inhibition of T-cell proliferation (in words) (PHA activated T-cells)	IC50 (PHA activated T-cells; [3]) [µg/mL]	melting point [°C]	inhibition at 25 µg/mL ([2]; THP-1, 4 h) [%]	IC50 (PHA activated T-cells; [4]) [µg/mL]	Inhibition of oxidative burst / ROS (in words) ([1]; zymosan-induced, human whole blood cells / PMNs)	IC50, PHA activated T-cells proliferation (PHA activated T-cells; human PBMC, 5 μg/mL PHA, tested at 0.2, 1, 5, 25 μg/mL, mean ± SD of triplicates) [µg/mL]
CC(=O)[C@H]1CC[C@H]2[C@@H]3C[C@H](C)C4=CC(=O)CC[C@]4(C)[C@H]3[C@@H](O)C[C@]12C [Compound 1, 11β-hydroxy-6α-methylpregn-4-ene-3,20-dione, reference compound]	> 100	30.5 ± 1.69	inhibit; also recorded: moderate levels of inhibition	strongly inhibited; also recorded: strong inhibitory activity	2.9 ± 0.04 (≈ 8.42 µM)	–	–	–	–	–
CC(=O)[C@H]1CC[C@@]2(O)[C@@H]3C[C@H](C)C4=CC(=O)CC[C@]4(C)[C@H]3C(=O)C[C@]12C [Compound 2, 14α-Hydroxy-6α-methylpregn-4-ene-3,11,20-trione]	> 100	–	–	moderate inhibitors	–	209 to 210	-4.04 ± 0.2	20 ± 0.9 (≈ 55.8 µM)	–	–
CC(=O)[C@H]1CC[C@H]2[C@@H]3C[C@@](C)(O)C4=CC(=O)CC[C@]4(C)[C@H]3C(=O)C[C@]12C [Compound 3, 6β-Hydroxy-6α-methylpregn-4-ene-3,11,20-trione]	> 100	–	–	moderate inhibitors	–	–	-2.69 ± 5.08	14.6 ± 2.1 (≈ 40.7 µM)	–	–
CC(=O)[C@H]1C[C@@H](O)[C@H]2[C@@H]3C[C@H](C)C4=CC(=O)CC[C@]4(C)[C@H]3C(=O)C[C@@]21C [Compound 4, 15β-Hydroxy-6α-methylpregn-4-ene-3,11,20-trione]	> 100	–	–	strongly inhibited; also recorded: strong inhibitory activity	–	185 to 186	-7.49 ± 1.27	9.2 ± 0.7 (≈ 25.7 µM)	–	–
CC(=O)[C@@]1(O)CC[C@H]2[C@@H]3C[C@@](C)(O)C4=CC(=O)CC[C@]4(C)[C@H]3C(=O)C[C@@]21C [Compound 5, 6β,17α-Dihydroxy-6α-methylpregn-4-ene-3,11,20-trione]	> 100	–	–	strongly inhibited; also recorded: strong inhibitory activity	–	289 to 291	6.44 ± 0.21	1.2 ± 0.02 (≈ 3.2 µM)	–	–
CC(O)C1CCC2C3CC(C)(O)C4=CC(=O)CCC4(C)C3C(=O)CC12C (stereo not drawn) [Compound 6, 6β,20S-Dihydroxy-6α-methylpregn-4-ene-3,11-dione]	30.3 ± 8.8	–	–	moderate inhibitors	–	229 to 230	4.4 ± 9.6	15.2 ± 2.4 (≈ 42.2 µM)	moderate inhibitory activity	–
CC(=O)[C@H]1[C@@H](O)C[C@H]2[C@@H]3C[C@H](C)C4=CC(=O)CC[C@]4(C)[C@H]3[C@@H](O)C[C@@]21C [Compound 7]	> 100	–	inhibit; also recorded: moderate levels of inhibition	strongly inhibited; also recorded: strong inhibitory activity	–	–	28.6 ± 11.5	0.2 to 10.4 (≈ 0.555 to 28.8 µM)	–	<0.2
C[C@H]1C[C@H]2[C@@H]3[C@H](O)C[C@H]([C@@H](C)O)[C@@]3(C)CC(=O)[C@@H]2[C@@]2(C)CCC(=O)C=C12 [Compound 8, 15β,20R-Dihydroxy-6α-methylpregn-4-ene-3,11-dione]	> 100	–	–	strongly inhibited; also recorded: strong inhibitory activity	–	274 to 275	-8.23 ± 2.75	10.4 ± 0.42 (≈ 28.8 µM)	–	–
CC(C)Cc1ccc(C(C)C(=O)O)cc1 (stereo not shown) [Ibuprofen, reference compound]	2.5 ± 0.6	–	–	–	–	–	–	–	–	–
C[C@]12C=CC(=O)C=C1CC[C@@H]1[C@@H]2[C@@H](O)C[C@@]2(C)[C@H]1CC[C@]2(O)C(=O)CO [Prednisolone, reference compound]	–	–	–	–	< 3.1	–	–	–	–	–
